Laboratory results from the NIST ThermoML archive (doi:10.1016/j.fluid.2019.01.025).

Assay: xn = mol fraction of the nth substance listed
Conditions: for viscosity / mass density: 91.2 kPa, Liquid; for viscosity: Concentric cylinders viscometry; for mass density: Vibrating tube method; for surface tension liquid-gas: Ring tensiometer

C[C@H](O)C(=O)O [(S)-2-hydroxypropanoic acid] + C[N+](C)(C)CCO.[Cl-]
x2 = 0.5
Conditions | mass density [kg/m3] | surface tension liquid-gas [mN/m] | viscosity [mPa·s]
293 K | 1150 | – | 309
298 K | 1150 | 42.87 | –
303 K | 1150 | – | 151
308 K | 1140 | – | –
313 K | 1140 | – | 101
318 K | 1140 | – | –
323 K | 1130 | – | 59
333 K | – | – | 35
343 K | – | – | 34
353 K | – | – | 25

C[C@H](O)C(=O)O [(S)-2-hydroxypropanoic acid] + O=C[C@H](O)[C@@H](O)[C@H](O)[C@H](O)CO
x1 = 0.833
Conditions | mass density [kg/m3] | surface tension liquid-gas [mN/m] | viscosity [mPa·s]
293 K | 1280 | – | 335
298 K | 1270 | 37.42 | –
303 K | 1270 | – | 161
308 K | 1270 | – | –
313 K | 1260 | – | 79
318 K | 1260 | – | –
323 K | 1250 | – | 34
333 K | – | – | 18
343 K | – | – | 16
353 K | – | – | 13
